Columns and labels:
[1] = test system: hippocampus CA1 pyramidal cells; test: Action on delayed neuronal cell death in rat (10-minute forebrain ischemia); assay type: in vivo
Method: (§1) Bilateral vertebral arteries of Wister male rats weighing 250 to 300 g were electrically cauterized before 24 hours from ischemic induction to prepare rats showing no neurological symptom such as hemiplegia. Only vertebral arteries of rats were cauterized to prepare rats as sham operation group. Before 30 minutes from ischemic induction, 0.1 mg/kg-b.w. or 1 mg/kg-b.w. of 5-methyl-2-(1-piperazinyl)benzenesulfonic acid monohydrate suspended in distilled water was administered orally to the rat of drug administration group and the equivalent dose of distilled water was administered to the rat of control group.
Ischemia was inducted by 10-minutes' bilateral occlusion of the common carotid arteries under ether anesthesia. […] During ischemia and after recirculation, until recovery of righting reflex, the rats were put on the heating mat to maintain their body temperature. After 72 hours from recirculation, the brain of the rat was fixed by perfusion with a fixative, FAM (formalin:acetic acid:methanol ▭1:1:8). After that, it was embedded by paraffin and a 5 μm thick slice of the forebrain was prepared in an usual manner Haematoxylin stain was conducted and the number of hippocampus CA1 pyramidal cells were counted to obtain the number of the cells per mm (neuronal density). The number of hippocampus CA1 pyramidal cells in sham operation group was 166.0±6.7. After 10 minutes ischemia induction, the number of hippocampus CA1 pyramidal cells in control group (distilled water administration group) was 31.2±13.3 and about 80% of total neuronal cells were led into degeneration and necrosis. The number of hippocampus CA1 pyramidal cells in 0.1 and 1 mg/kg 5-methyl-2-(1-piperazinyl)benzenesulfonic acid monohydrate oral administration group was 74.3±16.0 and 104.1±21.9, respectively. Both of them inhibited neuronal cell death dose-dependently and there is a significant difference between 1 mg/kg administration group and the control group.
(§2) The action on delayed neuronal cell death in rat was observed by the same method as Example 1 except for intravenously administering 0.03 mg/kg-b.w. or 0.3 mg/kg-b.w. of 5-n-propyl-2-(1-piperazinyl)benzenesulfonic acid suspended in distilled water instead of 5-methyl-2-(1-piperazinyl)benzenesulfonic acid monohydrate as a drug.

[2] = Action on disturbance of passive avoidance behavior in rat (5-minute ischemia); assay type: in vivo
Method: as §1, with “cauterized before 48 hours from” for “cauterized before 24 hours from”, “control group. The experiment was conducted by using the apparatus consisting of the bright room (50×50×50 cm) with 100 W lamp and the dark room (20×14×20 cm). The rat electrically cauterized bilateral vertebral arteries was put in the bright room to count the transit time to the dark room. The transit time was identified the reaction latency in the acquisition trial.” for “control group.”
The guillotine door was closed when the rat entered into the dark room and the rat was given electrical shock (2.9 mA, 5 seconds) from the floor grid to finish the acquisition trial.
Ischemia was inducted by 5-minutes' bilateral occlusion of the common carotid arteries under ether anesthesia. […] During ischemia and after recirculation, until recovery of righting reflex, the rats were put on the heating mat to maintain their body temperature. After 48 hours from recirculation, the retention trial was conducted. As the same manner as the acquisition trial, the rat put in the bright room had been observed for at most 300 seconds to count the transit time to the dark room (the reaction latency).
as §2, with “disturbance of passive avoidance” for “delayed neuronal cell death”

[3] = test system: papillary muscle of the right ventricle; test: Inhibition of the cardiotonic action of isoproterenol in isolated papillary muscle; set-up: species or system guinea-pig; conditions: Cavia porcellus, read-out: Inhibition (%) of developed tension increased by isoproterenol
Method: For the evaluation of the extent of inhibiting overaccumulation of intracellular calcium ions, inhibition of the cardiotonic action of isoproterenol by the compounds described in Table 1 and Table 2 as mentioned above was measured.
That is to say, since isoproterenol has been known to cause calcium ions overload by excessive calcium ions influx into cardiac myocytes (Fleckenstein A., Janke J., Doring H., Leder O.; Recent advances in Studies on cardiac structure and metabolism, Myocardial Biology, Vol. 4, pp. 563-580 (1974)), the compounds which inhibit the action of isoproterenol can inhibit intracellular calcium ions overload.
The papillary muscle of the right ventricle isolated from male Hartley guinea-pigs (body weight: 250 to 350 g) was suspended in an organ bath filled with a nutrient solution (Krebs-Henseleit solution). The temperature of the nutrient solution was maintained at 32° C., and the solution was aerated with a gas mixture of 95% oxygen and 5% carbon dioxide. The papillary muscle was applied with a resting tension of about 0.5 g, and stimulated with platinum electrodes by a rectangular pulse of a duration of 1 msec, a frequency of 1 Hz and a voltage higher by 15% than the threshold value. The developed tension of the papillary muscle was measured through a tension transducer and recorded with a polygraph system. After the preparation was stabilized for about 90 minutes, isoproterenol ( 10^−3 to 10^−7 M) was added into the organ bath so that developed tension could be increased by 100% or more, and at the point when the maximum response was obtained, the compounds of the present invention were added into the organ bath, and % inhibition of the developed tension increased by isoproterenol was measured.

[4] = molecular target: T1, sarcoplasmic reticulum calcium ion-ATPase (Canis lupus familiaris, UniProt O46674); test: Sarcoplasmic reticulum calcium ion-ATPase activity of myocardium fractions; assay type: biochemical, dog
T1 construct: their hearts were isolated and the myocardium in post-ischemic region and non-ischemic region the left ventricles were collected; from tissue; host or cells: dog left-ventricle myocardium (post-ischemic and non-ischemic regions), sarcoplasmic reticulum fraction

[5] = test system: ischemic/reperfused myocardium; test: Regional cardiac function (% SS) in ischemic/reperfused myocardium in dogs; assay type: in vivo, dog; conditions: 3 μg/kg i.v. 5 minutes before reperfusion; 30-min LAD occlusion, 1 h reperfusion
Method: The chest of mongrel dogs (adults, male and female) was opened under anesthesia with pentobarbital (30 mg/kg, i.v.) and a portion of the left coronary anterior descending (LAD) was dissected. A catheter-tip-pressure transducer (Millar; MPC-500) was inserted from the left carotid artery into the left ventricle to determine the left ventricular pressure and its first differential value (dP/dt). A pair of crystal probes were mounted in the LAD region to determine changes in regional segment length. Diastolic segment length (EDL; threshold point of dP/dt) and systolic segment length (ESL; dP/dt(−) max point) were determined from the waveform of dP/dt, and the regional segment shortening (% SS) in the ischemic/reperfused myocardium was calculated as follows: % SS=(EDL−ESL)/[…]×100
After hemodynamic stability is established following operation, the dissected portion of LAD was occluded for 30 minutes and then reperfused for 1 hour. At the same time, the cardiac function (% SS) in the above-described ischemic/reperfused region was continuously monitored throughout the protocol.
The animals were randomly grouped into two groups, one consisting of animals to be administered with 5-methyl-2-(1-piperazinyl)benzenesulfonic acid monohydrate (drug administration group; N=6) and the other of control group (N=6). […]

T1 sequence (O46674 whole entry): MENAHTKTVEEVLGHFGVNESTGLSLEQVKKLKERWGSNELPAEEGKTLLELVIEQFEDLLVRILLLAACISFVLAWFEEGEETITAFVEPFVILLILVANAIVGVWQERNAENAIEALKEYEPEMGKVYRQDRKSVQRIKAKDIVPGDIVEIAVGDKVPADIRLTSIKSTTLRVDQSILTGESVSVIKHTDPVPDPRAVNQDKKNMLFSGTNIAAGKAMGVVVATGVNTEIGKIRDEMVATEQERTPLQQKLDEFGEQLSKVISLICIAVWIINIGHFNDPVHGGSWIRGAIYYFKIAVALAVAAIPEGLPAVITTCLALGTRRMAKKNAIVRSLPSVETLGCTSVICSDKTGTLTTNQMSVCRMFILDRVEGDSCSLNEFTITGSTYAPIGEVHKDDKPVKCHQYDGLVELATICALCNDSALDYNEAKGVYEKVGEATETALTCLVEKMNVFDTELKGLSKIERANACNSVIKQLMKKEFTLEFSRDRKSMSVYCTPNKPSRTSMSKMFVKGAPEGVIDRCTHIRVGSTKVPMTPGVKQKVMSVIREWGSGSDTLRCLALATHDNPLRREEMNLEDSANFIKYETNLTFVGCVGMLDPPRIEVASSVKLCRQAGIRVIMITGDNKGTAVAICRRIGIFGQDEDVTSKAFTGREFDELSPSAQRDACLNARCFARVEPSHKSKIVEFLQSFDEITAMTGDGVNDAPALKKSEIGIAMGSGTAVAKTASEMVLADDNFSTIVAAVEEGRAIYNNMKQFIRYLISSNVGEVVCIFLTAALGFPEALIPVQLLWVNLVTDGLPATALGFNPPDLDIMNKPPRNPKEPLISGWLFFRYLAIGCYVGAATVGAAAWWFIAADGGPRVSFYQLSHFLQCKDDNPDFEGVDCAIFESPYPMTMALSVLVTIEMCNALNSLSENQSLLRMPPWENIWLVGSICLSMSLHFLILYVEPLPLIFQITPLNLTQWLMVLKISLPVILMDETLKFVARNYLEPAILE

In the case of `CCCc1ccc(N2CCNCC2)c(S(=O)(=O)O)c1` [Compound 14, 5-n-propyl-2-(1-piperazinyl)benzenesulfonic acid], the “number of hippocampus CA1 pyramidal cells (neuronal density)” value (“number” for short) ([1]; 0.03 mg/kg, P<0.01, control 71.3±10.3, sham 177.8±5.3) is reported as 125.1±5.7 per mm, the “number” value ([1]; 0.3 mg/kg, P<0.05, control 71.3±10.3, sham 177.8±5.3) is reported as 131.9±9.9 per mm and the “reaction latency in the retention trial” value ([2]; 0.03 mg/kg intravenous, 5-min ischemia, P<0.001, control 88.2±18.1, sham 243.5±31.6) is reported as 253.4 ± 25.6 s. For the same compound, the “reaction latency in the retention trial” value ([2]; 0.3 mg/kg intravenous, 5-min ischemia, P<0.05, control 88.2±18.1, sham 243.5±31.6) was 187.2 ± 36.1 s, the “reaction latency in the acquisition trial” value ([2]; every group (0.03 and 0.3 mg/kg intravenous, control, sham), no significant difference) was “about 20 seconds” and the inhibition at 100 µM ([3]; drug concentration 10^−4 M) was 19.2%. The inhibition at 10 µM ([3]; drug concentration 10^−5 M) was 10.4%.
In the case of `C/C=C(/C)C(=O)O[C@H]1C(C)=C2[C@H]([C@@H]1OC(=O)CCCCCCC)[C@@](C)(OC(C)=O)C[C@H](OC(=O)CCC)[C@@]1(O)[C@H]2OC(=O)[C@@]1(C)O` [Thapsigargin, reference compound], the “inhibition of sarcoplasmic reticulum calcium ion-ATPase activity” value ([4]; 1 μM added in vitro) is reported as “completely inhibited”.
`Cc1ccc(N2CCNCC2)c(S(=O)(=O)O)c1` [Compound 12, 5-methyl-2-(1-piperazinyl)benzenesulfonic acid] showed an inhibition at 1000 µM ([3]; drug concentration 10^−3 M) of 18.5%.
With `Cc1ccc(N2CCNCC2)c(S(=O)(=O)O)c1.O` [5-methyl-2-(1-piperazinyl)benzenesulfonic acid monohydrate] the “number” value ([1]; 0.1 mg/kg oral 30 min before 10-min ischemia, 72 h after recirculation, control 31.2±13.3, sham 166.0±6.7) was 74.3±16.0 per mm, the “number” value ([1]; 1 mg/kg oral 30 min before 10-min ischemia, 72 h after recirculation, P<0.05 vs control 31.2±13.3) was 104.1±21.9 per mm and the “reaction latency in the retention trial” value ([2]; 0.1 mg/kg oral, 48 h after 5-min ischemia, control 71.4±29.4, sham 206.1±29.4) was 97.7 ± 31.2 s. The “reaction latency in the retention trial” value ([2]; 1 mg/kg oral, 48 h after 5-min ischemia, control 71.4±29.4, sham 206.1±29.4) was 139.0 ± 27.5 s, the “regional cardiac function (% SS) in post-reperfusion region compared to control group” value [5] was “significantly improved” and the “calcium ion-ATPase activity of sarcoplasmic reticulum, post-ischemic region” value ([4]; calcium ion concentration 10 μM, dogs given 3 μg/kg i.v. before reperfusion, control 0.070±0.004, P<0.05) was 0.090±0.008 μmol Pi/mg min. The “calcium ion-ATPase activity of sarcoplasmic reticulum, non-ischemic region” value ([4]; calcium ion concentration 10 μM, dogs given 3 μg/kg i.v. before reperfusion, control 0.089±0.009, no significant difference) was 0.088±0.006 μmol Pi/mg min.

Source: patent publication US7652017B2, “Remedies and/or preventives for nervous system disorders” (Mitsubishi Tanabe Pharma Corporation, priority 1999, dated 2010)
